The values below come from US20080280837A1, “Biologically Active Compounds with Anti-Angiogenic Properties” (priority 2004, published 2008).

Data set [1] can be described thus: ActiveTox suite of toxicity assays (LDH release, proliferation, ATP content, caspase 3/7, cyp1A induction, P-glycoprotein inhibition, cyp3A induction via PXR or GR). Format: cell-based. Particulars: 10 and 100 μM, quadruplicate. The method, then: Compounds were analyzed in eight separate assays at concentrations of 10 and 100 μM in quadruplicate. Compounds were assayed tar toxicity via LDH release, inhibition of proliferation, ATP content, caspase 3/7 activation. Compounds were assayed for induction of cyp1A and P-glycoprotein inhibition. Compounds were also assayed for cyp3A induction under conditions which favor activation via the pregnane receptor (PXR) or the glucorticord receptor (GR). Appropriate positive and negative controls were included in each case.
(In general: Release of lactate dehydrogenase indicates damage to the cell membrane.)

Data set [2] is described as follows: Human hepatocyte microsomal degradation half-life. The class given is in vitro ADME. The method, then: the final concentration of ACN in the microsomal incubation was 1%,
samples were incubated in a water bath at 37° C., and
45 μL aliquots were taken over 2 hr, quenched with ACN, placed on ice for 30 min to precipitate proteins and assayed by LC/MS/MS using either the Quattro Ultima Pt, LCT or Q-T of instruments.

Data set [3] deals with MV522 human NSCLC tumour xenograft. Briefly: Nude mouse model of human MV522 non-small cell lung cancer tumours. Format: in vivo, nude mice. Here is the method: Initial Maximum Tolerated Dose (MTD) studies were done in male nude mice to determine the appropriate intravenous dosing regimen for the MV522 human NSCLC tumour model. A range of doses between 0 and 50 mg/Kg for 28 days (qdx28) were tested. Mice were randomized into groups with 5 animals per group including vehicle control. Animals were weighed twice weekly starting on day one and observed daily for adverse reactions or toxicity due to the agent. MTD studies determined the selection of 20 mg/kg and 35 mg/kg for intravenous dosing once per day for 28 days in the MV522 human NSCLC tumour xenograft model.
Male nude mice (nu/nu) between 5 and 6 weeks of age weighing approximately 20 g were implanted subcutaneously (s.c) by trocar with fragments of MV522 human tumour carcinomas harvested from s.c growing tumours in host mice. MV-522 is a metastatic human lung adenocarcinoma line. When tumours reached approximately 72 mg in size animals were pair matched into treatment and control groups with 10 mice in each group. Each mouse was tagged and followed individually throughout the experiment.
“Compound 1” was administered i.v. in a saline vehicle from day one. Vehicle control group animals were administered saline i.v. There were nine treatment groups including the vehicle control group. […]
At the end of the treatment period the mice were weighed and sacrificed. Each tumour was excised and weighed and a mean actual tumour weight (mg) per group was calculated along with the mean actual volume (mm^3). […] Mean tumour regression was determined using the formula [1−(mean actual tumour weightFINAL/mean tumour weightDAY 1)×100%].

[4] abbreviates: predicted from human microsomal degradation.

As usually defined, the CLint scaled is the rate of metabolic loss divided by the concentration.

As for `COC[C@H]1O[C@H](OCCc2ccccc2)[C@H](NC(=O)CCCN)[C@@H](OCc2ccc3ccccc3c2)[C@@H]1O` [Compound 1], the “Effects in the eight ActiveTox assays” value in data set [1] is “no statistical effects”. Also, the CLint scaled in data set [2] (human hepatocyte microsomes, pH 7.4, predicted from human microsomal degradation) is 62.2 mL/min/kg. In addition, the half-life in data set [2] (human hepatocyte microsomes, human microsomal incubation, 37° C., pH 7.4, read-out: Degradation t1/2) was 32.2 min. Besides, in data set [2] (setting [4]), the “Predicted CLblood” value is on record as 15.5 mL/min/kg and the “Predicted EH” value is reported as 0.75. In addition, the “Tumour growth inhibition (TGI)” value in data set [3] (group nine: 35 mg/kg compound 1 i.v. qdx28 and paclitaxel 16 mg/kg i.p. qdx5) is reported as 75.1%. Moreover, the “Tumour growth inhibition (TGI)” value in data set [3] (group seven: 20 mg/kg compound 1 i.v. qdx28 and paclitaxel 16 mg/kg i.p. qdx5) is reported as 56.9%.
